Measured values: patent US9695155B2, “Herbicidal substituted pyrimidinyloxy benzene compounds” (E. I. DU PONT DE NEMOURS AND COMPANY, priority 2013, dated 2017)

Legend:
winter wheat [1] = assay: Test D preemergence; format: in vivo, Triticum aestivum; conditions: Triticum aestivum, pre-emergence
Text: (§1) Seeds of plant species selected from bluegrass (annual bluegrass, Poa annua), blackgrass (Alopecurus myosuroides), canarygrass (littleseed canarygrass, Phalaris minor), chickweed (common chickweed, Stellaria media), galium (catchweed bedstraw, Galium aparine), bromegrass, downy (downy bromegrass, Bromus tectorum), field poppy (Papaver rhoeas), field violet (Viola arvensis), green foxtail (Setaria viridis), deadnettle (henbit deadnettle, Lamium amplexicaule), Italian ryegrass (Lolium multiflorum), kochia (Kochia scoparia), lambsquarters (Chenopodium album), oilseed rape (Brassica napus), pigweed (Amaranthus retroflexus), chamomile (scentless chamomile, Matricaria inodora), Russian thistle (Salsola kali), speedwell (bird's-eye speedwell, Veronica persica), spring barley (Hordeum vulgare), spring wheat (Triticum aestivum), wild buckwheat (Polygonum convolvulus), wild mustard (Sinapis arvensis), wild oat (Avena fatua), wild radish (Raphanus raphanistrum), windgrass (Apera spica-venti), winter barley (Hordeum vulgare), and winter wheat (Triticum aestivum) were planted into a silt loam soil and treated preemergence with test chemicals formulated in a non-phytotoxic solvent mixture which included a surfactant.
(§2) At the same time, these species were planted in pots containing Redi-Earth® planting medium (Scotts Company, 14111 Scottslawn Road, Marysville, Ohio 43041) comprising spaghnum peat moss, vermiculite, wetting agent and starter nutrients and treated with postemergence applications of the test chemicals formulated in the same manner. Plants ranged in height from 2 to 18 cm (1- to 4-leaf stage). Treated plants and controls were maintained in a controlled growth environment for 7 to 21 days after which time all species were compared to controls and visually evaluated. Plant response ratings, summarized in Table D, are based on a scale of 0 to 100 where 0 is no effect and 100 is complete control. A dash (-) response means no test result.

spring wheat [2] = assay: Test D preemergence; format: in vivo, Triticum aestivum; conditions: Triticum aestivum, pre-emergence
Text: as §1, §2

spring barley = assay: Test D preemergence; format: in vivo, Hordeum vulgare; conditions: Hordeum vulgare, pre-emergence
Text: as §1, §2

winter barley = assay: Test D preemergence; format: in vivo, Hordeum vulgare; conditions: Hordeum vulgare, pre-emergence
Text: as §1, §2

winter wheat [3] = assay: Test D postemergence; format: in vivo, Triticum aestivum; conditions: Triticum aestivum, post-emergence; for plant injury at 16 g/ha: 16 g ai/ha, scale 0-100, read-out: Plant response rating, Wheat, Winter; for plant injury at 31 g/ha: 31 g ai/ha; for plant injury at 31 g/ha / plant injury at 62 g/ha / plant injury at 125 g/ha: scale 0 to 100 (0 no effect, 100 complete control), read-out: Plant response rating, Wheat, Winter; for plant injury at 62 g/ha: 62 g ai/ha; for plant injury at 125 g/ha: 125 g ai/ha
Text: as §1, §2

spring wheat [4] = assay: Test D postemergence; format: in vivo, Triticum aestivum; conditions: Triticum aestivum, post-emergence; for plant injury at 16 g/ha: 16 g ai/ha, scale 0-100, read-out: Plant response rating, Wheat, Spring; for plant injury at 31 g/ha: 31 g ai/ha; for plant injury at 31 g/ha / plant injury at 62 g/ha / plant injury at 125 g/ha: scale 0 to 100 (0 no effect, 100 complete control), read-out: Plant response rating, Wheat, Spring; for plant injury at 62 g/ha: 62 g ai/ha; for plant injury at 125 g/ha: 125 g ai/ha
Text: as §1, §2

wild buckwheat = assay: Test D postemergence; format: in vivo, Polygonum convolvulus; conditions: Fallopia convolvulus, post-emergence, Postemergence, scale 0 to 100 (0 no effect, 100 complete control), read-out: Plant response rating, Buckwheat, Wild; for pest or weed control at 16 g/ha: 16 g ai/ha; for pest or weed control at 31 g/ha: 31 g ai/ha; for pest or weed control at 62 g/ha: 62 g ai/ha; for pest or weed control at 125 g/ha: 125 g ai/ha
Text: as §1, §2

deadnettle = assay: Test D postemergence; format: in vivo, Lamium amplexicaule; conditions: Lamium amplexicaule, post-emergence; for pest or weed control at 16 g/ha: 16 g ai/ha, scale 0-100, read-out: Plant response rating, Deadnettle; for pest or weed control at 31 g/ha: 31 g ai/ha; for pest or weed control at 31 g/ha / pest or weed control at 62 g/ha / pest or weed control at 125 g/ha: scale 0 to 100 (0 no effect, 100 complete control), read-out: Plant response rating, Deadnettle; for pest or weed control at 62 g/ha: 62 g ai/ha; for pest or weed control at 125 g/ha: 125 g ai/ha
Text: as §1, §2

wild oat = assay: Test D preemergence; format: in vivo, Avena fatua; conditions: Avena fatua, pre-emergence; for pest or weed control at 16 g/ha: 16 g ai/ha, scale 0 (no effect) to 100 (complete control), read-out: Plant response rating, Oat, Wild; for pest or weed control at 31 g/ha: 31 g ai/ha; for pest or weed control at 31 g/ha / pest or weed control at 62 g/ha / pest or weed control at 125 g/ha: scale 0-100, read-out: Plant response rating, Oat, Wild; for pest or weed control at 62 g/ha: 62 g ai/ha; for pest or weed control at 125 g/ha: 125 g ai/ha
Text: as §1, §2

chamomile = assay: Test D preemergence; format: in vivo, Matricaria inodora; conditions: Tripleurospermum inodorum, pre-emergence
Text: as §1, §2

Row | Structure (SMILES) | plant injury at 16 g/ha (winter wheat [3]) [%] | plant injury at 31 g/ha (winter wheat [3]) [%] | plant injury at 62 g/ha (winter wheat [3]) [%] | plant injury at 125 g/ha (winter wheat [3]) [%] | plant injury at 16 g/ha (spring wheat [4]) [%] | plant injury at 31 g/ha (spring wheat [4]) [%] | plant injury at 62 g/ha (spring wheat [4]) [%] | plant injury at 125 g/ha (spring wheat [4]) [%] | pest or weed control at 16 g/ha (wild buckwheat) [%] | pest or weed control at 31 g/ha (wild buckwheat) [%] | pest or weed control at 62 g/ha (wild buckwheat) [%] | pest or weed control at 125 g/ha (wild buckwheat) [%] | pest or weed control at 16 g/ha (deadnettle) [%] | pest or weed control at 31 g/ha (deadnettle) [%] | pest or weed control at 62 g/ha (deadnettle) [%] | pest or weed control at 125 g/ha (deadnettle) [%] | pest or weed control at 16 g/ha (wild oat) [%] | pest or weed control at 31 g/ha (wild oat) [%] | pest or weed control at 62 g/ha (wild oat) [%] | pest or weed control at 125 g/ha (wild oat) [%] | further results
1 | FC(F)(F)COc1cnn(-c2ccccc2Oc2ncc(Cl)cn2)c1 [Compound 138, 5-chloro-2-[2-[4-(2,2,2-trifluoroethoxy)-1H-pyrazol-1-yl]phenoxy]pyrimidine] | 0 | 0 | 5 | 15 | 5 | 5 | 5 | 15 | 65 | 70 | 65 | 80 | 5 | 5 | 15 | 25 | 0 | 0 | 0 | 0 | plant injury at 16 g/ha (winter wheat [1]; 16 g ai/ha, scale 0 (no effect) to 100 (complete control), read-out: Plant response rating, Wheat, Winter): 0%; plant injury at 31 g/ha (winter wheat [1]; 31 g ai/ha, scale 0 (no effect) to 100 (complete control), read-out: Plant response rating, Wheat, Winter): 5%; plant injury at 62 g/ha (winter wheat [1]; 62 g ai/ha, scale 0-100, read-out: Plant response rating, Wheat, Winter): 5%; plant injury at 125 g/ha (winter wheat [1]; 125 g ai/ha, scale 0-100, read-out: Plant response rating, Wheat, Winter): 5%; plant injury at 16 g/ha (spring wheat [2]; 16 g ai/ha, scale 0 (no effect) to 100 (complete control), read-out: Plant response rating, Wheat, Spring): 0%; plant injury at 31 g/ha (spring wheat [2]; 31 g ai/ha, scale 0 (no effect) to 100 (complete control), read-out: Plant response rating, Wheat, Spring): 10%; plant injury at 62 g/ha (spring wheat [2]; 62 g ai/ha, scale 0-100, read-out: Plant response rating, Wheat, Spring): 15%; plant injury at 125 g/ha (spring wheat [2]; 125 g ai/ha, scale 0-100, read-out: Plant response rating, Wheat, Spring): 15%; plant injury at 16 g/ha (spring barley; 16 g ai/ha, scale 0 (no effect) to 100 (complete control), read-out: Plant response rating, Barley, Spring): 10%; plant injury at 31 g/ha (spring barley; 31 g ai/ha, scale 0-100, read-out: Plant response rating, Barley, Spring): 10%; plant injury at 62 g/ha (spring barley; 62 g ai/ha, scale 0-100, read-out: Plant response rating, Barley, Spring): 10%; plant injury at 125 g/ha (spring barley; 125 g ai/ha, scale 0-100, read-out: Plant response rating, Barley, Spring): 15%; plant injury at 16 g/ha (winter barley; 16 g ai/ha, scale 0 (no effect) to 100 (complete control), read-out: Plant response rating, Barley, Winter): 0%; plant injury at 31 g/ha (winter barley; 31 g ai/ha, scale 0-100, read-out: Plant response rating, Barley, Winter): 0%; plant injury at 62 g/ha (winter barley; 62 g ai/ha, scale 0-100, read-out: Plant response rating, Barley, Winter): 5%; plant injury at 125 g/ha (winter barley; 125 g ai/ha, scale 0-100, read-out: Plant response rating, Barley, Winter): 15%
2 | Fc1cccc(Oc2ncc(Cl)cn2)c1-n1cc(Br)cn1 [Compound 178, 2-[2-(4-bromo-1H-pyrazol-1-yl)-3-fluorophenoxy]-5-chloropyrimidine] | 0 | 0 | 0 | 10 | 0 | 0 | 0 | 5 | 65 | 75 | 75 | 85 | 40 | 45 | 50 | 65 | 0 | 0 | 10 | 25 | pest or weed control at 16 g/ha (chamomile; 16 g ai/ha, scale 0 (no effect) to 100 (complete control), read-out: Plant response rating, Chamomile): 0%; pest or weed control at 31 g/ha (chamomile; 31 g ai/ha, scale 0-100, read-out: Plant response rating, Chamomile): 70%; pest or weed control at 62 g/ha (chamomile; 62 g ai/ha, scale 0-100, read-out: Plant response rating, Chamomile): 55%; pest or weed control at 125 g/ha (chamomile; 125 g ai/ha, scale 0-100, read-out: Plant response rating, Chamomile): 60%
